In patent publication US8324267B2, “Kinase inhibitors and the use thereof” (Forschungzentrum Karlsruhe GmbH, priority 2001, dated 2012):

Legend:
VEGFR-2 = VEGFR-2 (Homo sapiens, UniProt P35968); test: Ligand-induced autophosphorylation in VEGFR-2-expressing PAE cells (immunoprecipitation, Western blot); type: cell-based; conditions: PAE/VEGFR-2 cells, VEGF stimulated; 0.5, 5 or 50 μM; FIG. 1
Procedure: VEGFR-2- and VEGFR-3-expressing PAE cells (pig aorta endothel cells) were incubated with 0.5 μM, 5 μM or 50 μM of the appropriate test compound. The cells were then stimulated with VEGF (VEGFR-2) or VEGF-C (VEGFR-3) or without growth factor as negative control. The cells were harvested after 15 min and immunoprecipitated with VEGFR-2 or VEGFR-3. The immunoprecipitates were blotted after electrophoresis and investigated with anti-phosphotyrosine antibody. The blots were detached and investigated with VEGFR-2 or VEGFR-3 antibody to check the loading.
PAE/VEGFR-2 or PAE/VEGFR-3 were seeded in 15 cm tissue culture tissues and cultivated to 50% confluence. The cells were then starved in serum-free medium (with 0.2% BSA) for 16-24 h (PAE/VEGFR-3) or 72 h […]. After preincubation with 5 ml of 1 mM serum-free medium (1 mM Na3VO4) and various inhibitor concentrations for 30-60 min, the cells were stimulated at 37° C. for 5 min (VEGFR-3) or 8 min (VEGFR-2). The cells were then rapidly washed twice with ice-cold PBS (with 1 mM Na3VO4) and lysed with ice-cold modified RIPA buffer (30 mM Tris-HCl, pH 7.4, 150 mM NaCl, 1 mM EDTA, 0.5% (v/v) Triton X100, 0.5% (w/v) sodium deoxycholate, 10 mM NaF) freshly prepared with 1 mM PMSF, 0.1 U/ml aprotinin, 10 ng/ml leupeptin and 5 mM Na3VO4. The cells were harvested from the plate with the aid of a rubber policeman and collected in centrifuge tubes on ice. The lysates were solubilized by forcing through a syringe with a 25 G needle, and were centrifuged at 4° C./13 000 rpm for 15 min to remove insoluble constituents.
The clear lysates were incubated with 4 μg of anti-VEGFR-2 (C-1158, Santa Cruz) or […] at 4° C. overnight.
The receptor-antibody complex was precipitated by adding 30 μl of protein A-Sepharose (Amersham)/tube and incubating at 4° C. for a further 2 hours. […]

[1] = system: Human umbilical vein endothelial cells (HUVEC); test: Endothelial cell proliferation, 3H-thymidine incorporation; type: cell-based; conditions: 24 h, FIG. 2
Procedure: Human umbilical vein endothelial cells (HUVEC) underwent serum-starved cultivation for 24 h. The cells were then preincubated with the appropriate compounds for 2 h and subsequently cultivated in the presence of the inhibitors with VEGF (MAE87) or bFGF (MAE106, MAZ51) for a further 24 h. The cells were then incubated with ^3H-thymidine. The amount of radioactivity incorporated into the cellular DNA was measured. All the experiments were carried out in triplicate.
HUVE cells were seeded in 100 μl/well (10^5 cells/ml) in 96-well culture plates and left to rest overnight. The cells were then starved with 50 μl of serum-free medium/well for 24 h. Subsequently, 50 μl of various concentrations of the test substances in serum-free medium (contains 2% DMSO) were added and incubated at 37° C. for 2 h. The medium containing the test compounds was removed and replaced by 50 μl of fresh medium with bFGF (12.5 ng/ml) or VEGF (100 ng/ml). Fresh dilutions of the doubly concentrated test substances in serum-free medium with 2% DMSO were added to the cells in 50 μl/well. The final concentration of DMSO was always 1%. After 24 h, ^3H-thymidine (1 μCi/well) was added, and the cells were incubated for a further 4-6 h. To analyze the incorporated radioactivity, the cells were trypsinized for 30 min and harvested with the aid of a harvester 96 cell (Tomtec) and fixed on a glass fiber membrane filter. The immobilized radioactivity was quantified with the aid of a MicroBeta TriLux liquid scintillation luminescence counter. The result is depicted in FIG. 2.
FIG. 2: Measurement of the (^3H)-thymidine incorporation into human endothelial cells (HUVEC) as a function of the concentration of inhibitors employed (MAE87, MAE106 and MAZ51). The inhibition of cell proliferation by MAE87, MAE106 and MAZ51 is dose-dependent in this case.

[2] = system: MT450 rat mammary carcinoma cells; test: Growth of subcutaneous MT450 mammary carcinomas in Wistar Furth rats; type: in vivo; conditions: MT450 cells s.c., 8 mg/kg/day intraperitoneally in DMSO, FIG. 8
Procedure: MT450 rat mammary carcinoma cells were injected subcutaneously into Wistar Furth rats. Treatment with the active substance MAZ51 at 8 mg/kg/day in 100% DMSO or solvent control (100% DMSO) was started the day after injection of the tumor cells. MAZ51 or only solvent was injected intraperitoneally each day. Each test group comprised 8 animals. The tumors were measured every 4-5 days.
FIG. 8: Depiction of the tumor volume as a function of the number of days after tumor cell injection depending on treatment of the MT450 tumor cells with MAZ51 and a DMSO solution (negative control).

Sequence of VEGFR-2 (P35968 20-1356): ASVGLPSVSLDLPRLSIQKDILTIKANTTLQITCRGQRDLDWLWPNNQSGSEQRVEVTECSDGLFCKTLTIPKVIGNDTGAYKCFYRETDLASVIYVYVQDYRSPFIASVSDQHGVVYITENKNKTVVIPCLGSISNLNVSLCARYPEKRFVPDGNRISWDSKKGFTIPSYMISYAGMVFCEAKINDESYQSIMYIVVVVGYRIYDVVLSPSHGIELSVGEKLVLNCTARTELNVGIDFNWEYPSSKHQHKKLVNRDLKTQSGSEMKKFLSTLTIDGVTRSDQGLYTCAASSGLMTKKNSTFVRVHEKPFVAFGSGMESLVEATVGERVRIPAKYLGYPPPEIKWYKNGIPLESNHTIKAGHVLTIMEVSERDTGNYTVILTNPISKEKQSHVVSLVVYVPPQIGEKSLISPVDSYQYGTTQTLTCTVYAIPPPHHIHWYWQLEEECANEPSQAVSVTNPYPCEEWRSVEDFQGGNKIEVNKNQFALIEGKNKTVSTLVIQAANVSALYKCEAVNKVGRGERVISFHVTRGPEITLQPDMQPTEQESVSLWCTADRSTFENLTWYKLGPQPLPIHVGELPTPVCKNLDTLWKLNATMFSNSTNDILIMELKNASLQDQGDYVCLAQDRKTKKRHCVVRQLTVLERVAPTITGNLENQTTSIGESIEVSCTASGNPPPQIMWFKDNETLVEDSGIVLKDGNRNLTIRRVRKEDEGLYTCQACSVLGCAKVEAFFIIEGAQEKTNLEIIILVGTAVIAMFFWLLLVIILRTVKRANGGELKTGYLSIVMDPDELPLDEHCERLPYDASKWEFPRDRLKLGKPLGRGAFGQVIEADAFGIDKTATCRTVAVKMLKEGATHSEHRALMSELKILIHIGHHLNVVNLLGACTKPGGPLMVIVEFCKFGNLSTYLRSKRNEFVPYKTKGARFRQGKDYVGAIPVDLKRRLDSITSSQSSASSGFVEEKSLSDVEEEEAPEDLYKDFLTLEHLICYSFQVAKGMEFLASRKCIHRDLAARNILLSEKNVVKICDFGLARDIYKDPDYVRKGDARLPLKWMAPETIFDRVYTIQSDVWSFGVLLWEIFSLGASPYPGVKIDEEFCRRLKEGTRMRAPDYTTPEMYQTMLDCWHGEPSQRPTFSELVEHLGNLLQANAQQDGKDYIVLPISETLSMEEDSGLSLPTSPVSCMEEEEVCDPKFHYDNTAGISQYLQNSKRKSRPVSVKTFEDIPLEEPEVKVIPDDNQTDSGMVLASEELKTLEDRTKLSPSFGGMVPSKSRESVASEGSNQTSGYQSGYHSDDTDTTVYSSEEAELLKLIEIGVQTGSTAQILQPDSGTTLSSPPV

Question: What does the source list for `O=C1Nc2ccccc2C1=Cc1ccc(O)cc1O` [MAE87, 3-(2,4-Dihydroxybenzylidene)-1,3-dihydroindol-2-one]?
Answer: inhibition of ligand-induced autophosphorylation of VEGFR-2 (VEGFR-2): Inhibit the Ligand-Induced Autophosphorylation; inhibition of cell proliferation (3H-thymidine incorporation) ([1]; VEGF stimulated): dose-dependent

Question: `COc1ccc(C=C2C(=O)Nc3ccccc32)cc1F` [MAE106, 3-(3-Fluoro-4-methoxybenzylidene)-1,3-dihydroindole-2-one] was tested. Which “inhibition of ligand-induced autophosphorylation of VEGFR-2” value (VEGFR-2) did it give?
Answer: Inhibit the Ligand-Induced Autophosphorylation

Question: And the “inhibition of cell proliferation (3H-thymidine incorporation)” value ([1]; bFGF stimulated)?
Answer: dose-dependent

Question: With `CN(C)c1ccc(C=C2C(=O)Nc3ccccc32)c2ccccc12` [MAZ51, 3-(4-Dimethylaminonaphthalen-1-ylmethylene)-1,3-dihydroindol-2-one] as the compound, how does the “inhibition of tumor growth (tumor volume)” value [2] read?
Answer: inhibited in vivo

Question: What about the “inhibition of ligand-induced autophosphorylation of VEGFR-2” value (VEGFR-2) of the same compound?
Answer: Inhibit the Ligand-Induced Autophosphorylation

Question: And the “inhibition of cell proliferation (3H-thymidine incorporation)” value ([1]; bFGF stimulated)?
Answer: dose-dependent
